The results in this text go back to paper PMC11617876 (Heliyon, 2024).

In series [1] the test system is carrageenan-induced paw edema. In words: carrageenan-induced rat paw edema, in vivo anti-inflammatory activity. To be noted: diclofenac sodium = 1. Background: In the carrageenan paw model, swelling and tenderness develop within hours.
The next series concerns albino rats. The experiment in a line: acute toxicity studies. The format is in vivo, rat. As to conditions: oral.

With `Clc1ccc(-c2nocc2-c2ccccc2)cc1` [5b, 3-(4-Chloro-phenyl)-4-phenyl-isoxazole], the Effectiveness in series [1] amounted to 0.83. Also, the “toxicity in laboratory tests” value with albino rats is on record as “low toxicity”.

Molecule `Oc1ccc(-c2nocc2-c2ccccc2)cc1` [5c, 4-(4-Phenyl-isoxazol-3-yl)-phenol] registered an Effectiveness in series [1] of 0.81. In the series on albino rats, the “toxicity in laboratory tests” value is given as “low toxicity”.

Regarding `Oc1cccc(-c2nocc2-c2ccccc2)c1` [5d, 3-(4-Phenyl-isoxazol-3-yl)-phenol], the Effectiveness in series [1] was 0.71. Besides, in the series with albino rats, the “toxicity in laboratory tests” value is “low toxicity”.

In turn, `O=[N+]([O-])c1cccc(-c2nocc2-c2ccccc2)c1` [5e, 3-(3-Nitro-phenyl)-4-phenyl-isoxazole] had an Effectiveness in series [1] of 0.16.

`O=[N+]([O-])c1ccc(-c2nocc2-c2ccccc2)cc1` [5f, 3-(4-Nitro-phenyl)-4-phenyl-isoxazole] had an Effectiveness in series [1] of 0.66.

In turn, `Brc1cccc(-c2nocc2-c2ccccc2)c1` [5g, 3-(3-Bromo-phenyl)-4-phenyl-isoxazole] showed an Effectiveness in series [1] of 0.22.

Molecule `Brc1ccc(-c2nocc2-c2ccccc2)cc1` [5h, 3-(4-Bromo-phenyl)-4-phenyl-isoxazole] came in with an Effectiveness in series [1] of 0.02.

In the case of `Clc1cccc(-c2nocc2-c2ccccc2)c1` [5i, 3-(3-Chloro-phenyl)-4-phenyl-isoxazole], the Effectiveness in series [1] is on record as 0.55.

In series [1], `Fc1ccc(-c2nocc2-c2ccccc2)cc1` [5j, 3-(4-Fluoro-phenyl)-4-phenyl-isoxazole] yielded an Effectiveness of 0.80.

`COc1ccccc1-c1nocc1-c1ccccc1` [5k, 3-(2-Methoxy-phenyl)-4-phenyl-isoxazole]: the Effectiveness in series [1] was 0.09.

In series [1], `COc1cccc(-c2nocc2-c2ccccc2)c1` [5l, 3-(3-Methoxy-phenyl)-4-phenyl-isoxazole] returned an Effectiveness of 0.57.

In turn, `COc1ccc(-c2nocc2-c2ccccc2)cc1` [5m, 3-(4-Methoxy-phenyl)-4-phenyl-isoxazole] showed an Effectiveness in series [1] of 0.63.

Take `O=C(O)Cc1ccccc1Nc1c(Cl)cccc1Cl` [Diclofenac sodium, reference compound]: in series [1], the Effectiveness was determined as 1.
